# From patent US20230293680A1, “A COMPOSITION OF ANTI-DR5 ANTIBODIES AND AN IMMUNOMODULATORY IMIDE DRUG FOR USE IN TREATING MULTIPLE MYELOMA” (Genmab B.V., priority 2020, published 2023)
# Read-outs that look alike come from different tables or passages of the source.
# Tests used:
# primary MM cells [1] = conditions: 3 μM, 24 h viability assays on primary MM cells ex vivo
# NCI-H929 cells [2] = experiment: viability of lenalidomide-preincubated NCI-H929 cells; type: cell-based, human; conditions: NCI-H929 cells preincubated 5 days with 3 μM lenalidomide
# Experimental: FIG. 11: Percentage inhibition of viability of lenalidomide-preincubated NCI-H929 cells by HexaBody-DR5/DR5, lenalidomide and the combination thereof. […] Graphs show the mean and SD of duplicate measurements from a representative experiment (n=3).
# primary MM cells [3] = experiment: 24-hour ex vivo viability assay with BMNCs of MM patients, flow cytometry; type: cell-based, human; conditions: 20 μg/mL
# [4] = single dose study by intravenous infusion, plasma PK (generic IgG ECLIA); conditions: for Cmax / Tmax / Vd: group mean
# human cancer cell lines = experiment: viability assays in various human cancer cell lines (overall); type: cell-based
# Experimental: (§1) COLO 205 cancer cells were harvested by pooling the culture supernatant containing non-adherent cells and trypsinized adherent cells. The other cell lines were harvested by trypsinization. For trypsinization, adherent cells were incubated with Trypsin-EDTA (Gibco, Cat no 15400-054) diluted in PBS (B.Braun; Cat no 3623140) to a final concentration of 0.05% Trypsin for 2 minutes at 37° C. and passed through a cell strainer. Cells were pelleted by centrifugation for 5 minutes at 1,200 rpm and resuspended at a concentration of 0.5x10^5 cells/mL in culture medium.
# (§2) 100 μL of single cell suspensions (5,000 cells per well) were seeded in polystyrene 96-well flat-bottom plates (Greiner Bio-One, Cat no 655180) and allowed to adhere overnight at 37° C. The following day, 50 μL antibody samples (0.002-133 nM final concentrations in 4-fold dilutions) were added to the adherent cells and incubated for 3 days at 37° C. As a positive control in all viability assays, cells were incubated with 5 μM staurosporine (Sigma Aldrich, Cat no S6942), and untreated cells were included as the negative control. The viability of the cultured cells was determined in a CellTiter-Glo Luminescent Cell Viability Assay (Promega, Cat no G7571) that quantifies the presence of ATP, which is an indicator of metabolically active cells. From the kit, 15 μL Luciferin Solution Reagent was added to each well of the viability assay plate. Next, plates were incubated for 1.5 hours at 37° C. 100 μL supernatant was transferred to a white OptiPlate-96 (Perkin Elmer, Cat no 6005299) and luminescence was measured on an EnVision Multilabel Reader (PerkinElmer). Data were analyzed and plotted using non-linear regression (sigmoidal dose-response with variable slope) using GraphPad Prism software. The percentage viable cells was calculated using the following formula: % viable cells=[(luminescence antibody sample−luminescence staurosporine sample)/(luminescence no antibody sample−luminescence staurosporine sample)]×100.
# [5] = cynomolgus monkey, in vivo, iv
# [6] = nonclinical immune agonism / cytokine release assessment
# CDX and PDX mouse models = experiment: in vivo anti-tumor response in CDX and PDX mouse models (overall)
# Experimental: Therefore, the FIH starting dose of 0.3 mg/kg was considered to be in the lower end of a potential therapeutic dose-range in human patients.
# NCI-H929 cells [7] = experiment: cytotoxicity in NCI-H929 cells with healthy donor PBMCs; type: cell-based, human; conditions: 20 μg/mL, 24 h, absence and presence of healthy donor PBMCs
# Experimental: FIG. 12: Inhibition of cell viability by HexaBody-DR5/DR5 in combination with lenalidomide on NCI-H929 cells in presence and absence of healthy donor peripheral blood mononuclear cells (PBMCs) in vitro. (A) Percentage kill of NCI-H929 cells by 20 μg/mL HexaBody-DR5/DR5 after a 24-hour incubation in the absence and presence of healthy donor PBMCs (n=6) in a 40:1 effector to target ratio. Mean and SD are shown. (ns) not significant (paired t-test). […] NCI-H929 cells were incubated with lenalidomide-exposed PBMCs and treated with lenalidomide and/or HexaBody-DR5/DR5 for an additional 24 h. Mean percentage kill and SD is shown. **p<0.005; ***p<0.0005 (paired t-test).
# To test possible indirect immunomodulatory effects of lenalidomide on HexaBody-DR5/DR5-mediated killing, PBMCs of healthy donors were preincubated with 3 μM lenalidomide for 5 days. Subsequently, NCI-H929 cells were incubated with 3 μM lenalidomide, lenalidomide-exposed PBMCs and/or 20 μg/mL HexaBody-DR5/DR5 for an additional 24 h.
# [8] = repeat-dose toxicity study, 5 weekly IV infusions (toxicokinetics, NOAEL/HNSTD)
# [9] = test system: colorectal cancer PDX model CR0126; experiment: in vivo anti-tumor activity, PDX model; parameters: species or system mice; conditions: 2 mg/kg QWx2 IV; Mann-Whitney p<0.0379
# Experimental: (§3) Immunodeficient 8-13 weeks old female BALB/c athymic nude mice (Beijing HFK Bio-Technology Co. Ltd.) or nu/nu mice (Vital River Laboratories Research Models and Services) were inoculated subcutaneously at the right flank with one tumor fragment (2-3 mm diameter) derived from colorectal cancer PDX model CR0126 or CR3056 at CrownBio, Beijing, China. Earmarks were placed for mouse identification. Tumor volumes were measured at least twice per week using a digital caliper (PLEXX). Tumor volumes (mm^3) were calculated as follows: tumor volume=0.5×(length)×(width)^2. When the mean tumor size reached ˜200 mm^3, mice were divided into groups of 8 mice each, with equal tumor size distribution (average and variance). Mice were treated QW×2 by IV injection of 10 μL IgG1-DR5-01-G56T-E430G+IgG1-DR5-05-E430G per gram body weight: 0.2 mg/mL (2 mg/kg) or 0.05 mg/mL (0.5 mg/kg). For each model, statistical analysis was performed on the last day that all groups were intact.
# [10] = test system: colorectal cancer PDX model CR3056; experiment: in vivo anti-tumor activity, PDX model; parameters: species or system mice
# Experimental: as §3
# COLO 205 = experiment: three-day viability assay (CellTiter-Glo); type: cell-based, human; conditions: COLO 205 CRC, 3 days
# Experimental: as §1, §2
# A375 = experiment: three-day viability assay (CellTiter-Glo); type: cell-based, human; conditions: A375 melanoma, 3 days
# Experimental: as §1, §2
# SK-MES-1 = experiment: three-day viability assay (CellTiter-Glo); type: cell-based, human; conditions: SK-MES-1 NSCLC, 3 days
# Experimental: as §1, §2
# BxPC-3 = experiment: three-day viability assay (CellTiter-Glo); type: cell-based, human; conditions: BxPC-3 pancreatic, 3 days
# Experimental: as §1, §2
# PANC-1 = experiment: three-day viability assay (CellTiter-Glo); type: cell-based, human; conditions: PANC-1 pancreatic, 3 days
# Experimental: as §1, §2
# SNU-5 = experiment: three-day viability assay (CellTiter-Glo); type: cell-based, human; conditions: SNU-5 gastric, 3 days
# Experimental: as §1, §2
# HCT-15 = experiment: three-day viability assay (CellTiter-Glo); type: cell-based, human; conditions: HCT-15 CRC, 3 days
# Experimental: as §1, §2
# [11] = dose range finding study by intravenous infusion, plasma PK; type: in vivo, cynomolgus monkey; conditions: 0.1, 0.5, 5 and 25 mg/kg IV
# [12] = newly diagnosed (ND) patient samples
# [13] = relapsed and/or refractory (RR) patient samples
# [14] = median over the seven cell lines with >40% max inhibition
# [15] = 1QWx5 IV dosing, GLP toxicity study
molecule,measurement,setting,value
Nc1cccc2c1CN(C1CCC(=O)NC1=O)C2=O (stereo not drawn) [lenalidomide],single agent activity,primary MM cells [1],no single agent activity
same,effect of preincubation on HexaBody-DR5/DR5-mediated kill,NCI-H929 cells [2],no direct effect
"HexaBody-DR5/DR5: 1:1 mixture of IgG1-hDR5-01-G56T-E430G and IgG1-hDR5-05-E430G, two non-competing humanized anti-human DR5 IgG1 antibodies",median lysis of MM cells,primary MM cells [3]; RR patients under treatment or last treatment shorter than 1 month before BM biopsy,62%
same,median lysis of MM cells,primary MM cells [3]; RR patients with last exposure to therapy >1 month before BM biopsy,23%
same,median lysis of MM cells,primary MM cells [3]; [12],19%
same,range of lysis of MM cells,primary MM cells [3]; [12],3-69%
same,median lysis of MM cells,primary MM cells [3]; [13],43%
same,range of lysis of MM cells,primary MM cells [3]; [13],0-86%
same,Cmax,[4]; 0.5 mg/kg single IV,16.7 µg/mL
same,Tmax,[4]; 0.5 mg/kg single IV,1 h
same,Vd,[4]; 0.5 mg/kg single IV,0.0635 L/kg
same,Cmax,[4]; 5 mg/kg single IV,135.0 µg/mL
same,Tmax,[4]; 5 mg/kg single IV,1 h
same,Vd,[4]; 5 mg/kg single IV,0.0726 L/kg
same,Cmax,[4]; 25 mg/kg single IV,470.3 µg/mL
same,Tmax,[4]; 25 mg/kg single IV,3.36 h
same,Vd,[4]; 25 mg/kg single IV,0.091 L/kg
same,"increase in exposure with increasing dose, based on nAUC0-∞",[4]; 0.5 to 25 mg/kg,more or less proportional increase in exposure
same,"increase in exposure, based on nCmax",[4]; between 5 and 25 mg/kg,less than proportional increase in exposure
same,"increase in exposure, based on nCmax",[4]; up to a dose of 5 mg/kg,proportional increase in exposure
same,maximal inhibition of viability,human cancer cell lines; in seven of the twelve cell lines tested,more than 40%
same,IC20,human cancer cell lines; [14],0.554 nM
same,Overall Median IC20,human cancer cell lines; [14],0.083 µg/mL
same,AUC0-∞ (μg · day/· mL^−1),[5]; 0.5 mg/kg,40.3 μg · day/· mL^−1
same,CL (mL · day^−1/· kg^−1),[5]; 0.5 mg/kg,12.6 mL · day^−1/· kg^−1
same,T1/2,[5]; 0.5 mg/kg,83.5 h
same,nCmax (μg · mL^−1/mg · kg^−1),[5]; 0.5 mg/kg,33.5 μg · mL^−1/mg · kg^−1
same,AUC0-∞ (μg · day/· mL^−1),[5]; 5 mg/kg,452.6 μg · day/· mL^−1
same,CL (mL · day^−1/· kg^−1),[5]; 5 mg/kg,11.4 mL · day^−1/· kg^−1
same,T1/2,[5]; 5 mg/kg,110 h
same,nCmax (μg · mL^−1/mg · kg^−1),[5]; 5 mg/kg,27.0 μg · mL^−1/mg · kg^−1
same,AUC0-∞ (μg · day/· mL^−1),[5]; 25 mg/kg,2748 μg · day/· mL^−1
same,CL (mL · day^−1/· kg^−1),[5]; 25 mg/kg,9.10 mL · day^−1/· kg^−1
same,T1/2,[5]; 25 mg/kg,166 h
same,nCmax (μg · mL^−1/mg · kg^−1),[5]; 25 mg/kg,18.8 μg · mL^−1/mg · kg^−1
same,hazard of acute cytokine-releasing activity,[6],no hazard of acute cytokine-releasing activity has been identified
same,immune agonistic properties,[6],no immune agonistic properties
same,In vivo anti-tumor response in CDX and PDX mouse models,CDX and PDX mouse models; dose giving full response,2 mg/kg
same,In vivo anti-tumor response in CDX and PDX mouse models,CDX and PDX mouse models; dose giving partial response,0.5 mg/kg
same,effect of FcγR-mediated crosslinking on cytotoxicity,NCI-H929 cells [7],did not increase
same,HNSTDcyno,[8]; [15],50 mg/kg
same,NOAELcyno,[8]; [15],50 mg/kg
same,MRSDhuman (=NOAELcyno/6),[8]; converted from cynomolgus NOAEL/HNSTD,8.3 mg/kg
same,tumor growth inhibition,[9],significant tumor growth inhibition
same,tumor growth inhibition,"[10]; 0.5 mg/kg QWx2 IV, Mann-Whitney p<0.0379",significant tumor growth inhibition
same,tumor growth inhibition,"[10]; 2 mg/kg QWx2 IV, Mann-Whitney p<0.0003",significant tumor growth inhibition
same,Average IC20,COLO 205,0.015 µg/mL
same,IC20,COLO 205,0.103 nM
same,Max inhibition %,COLO 205,99.6%
same,Average IC20,A375,0.067 µg/mL
same,IC20,A375,0.445 nM
same,Max inhibition %,A375,54.6%
same,Average IC20,SK-MES-1,0.086 µg/mL
same,IC20,SK-MES-1,0.572 nM
same,Max inhibition %,SK-MES-1,76.6%
same,Average IC20,BxPC-3,0.102 µg/mL
same,IC20,BxPC-3,0.677 nM
same,Max inhibition %,BxPC-3,89.4%
same,Average IC20,PANC-1,0.083 µg/mL
same,IC20,PANC-1,0.554 nM
same,Max inhibition %,PANC-1,61.0%
same,Average IC20,SNU-5,0.041 µg/mL
same,IC20,SNU-5,0.274 nM
same,Max inhibition %,SNU-5,44.7%
same,Average IC20,HCT-15,0.104 µg/mL
same,IC20,HCT-15,0.692 nM
same,Max inhibition %,HCT-15,66.7%
same,"increase in exposure with increasing dose, based on nCmax and nAUC0-∞",[11],proportional increase in exposure
same,target-mediated clearance (plasma concentration-time profiles),[11]; single or repeated dose,no indications of target-mediated clearance
